Counter-ions that a name gives are not always drawn. Like-named read-outs stand apart in the source and are kept apart here.

In the assay the test system is Acinetobacter baumannii ATCC17961. Kind of assay: Antimicrobial susceptibility testing: 90% growth inhibitory concentration (IC90) determination in Iso-Sensitest broth, OD600 growth. It counts as cell-based. In short, it runs like this:
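OD600 read every 20 min for 16 h at 35±2° C; inhibition taken in log phase to derive IC90. Twofold, 10-point dilutions (e.g. 50–0.097 μM final), inoculum ~5×10^(5) CFU/ml.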

The mark [1] stands for this setting: Acinetobacter baumannii, ATCC17961, 16 h, strain ATCC 17961, OD600 growth over 16 h, read-out: A. baumannii ATCC 17961 IC90.
Where [2] appears, read: Acinetobacter baumannii, ATCC17961, 16 h, read-out: A. baumannii ATCC 17961 IC90 (uM), strain ATCC 17961, OD600 growth over 16 h.
[3] abbreviates: strain ATCC 17961, OD600 growth over 16 h, read-out: A. baumannii ATCC 17961 IC90.

A word on the IC90: it is the concentration needed for an effect of 90%. For the compound `N#CCn1cc(-c2cnc3c(Nc4ccc(C(=O)NCCNCC(=O)NC5CNC5)c(Cl)c4)nccn23)c(C(F)(F)F)n1` [Example 816, N-(2-(2-(azetidin-3-ylamino)-2-oxoethyl)amino) ethyl)-2-chloro-4-((3-(1-(cyanomethyl)-3-(trifluoromethyl)-1H-pyrazol-4-yl)imidazo[1,2-a]pyrazin-8-yl)amino) benzamide formate], the IC90 under setting [1] amounted to 0.29 µM.

For the compound `Cn1cc(Cn2cc(-c3cnc4c(Nc5ccc(C(=O)N6CCNCC6)c(Cl)c5)nccn34)c(C(F)(F)F)n2)cn1` [Example 134, [2-chloro-4-[[3-[1-[(1-methylpyrazol-4-yl)methyl]-3-(trifluoromethyl)pyrazol-4-yl]imidazo[1,2-a]pyrazin-8-yl]amino]phenyl]-piperazin-1-ylmethanone formate], the concentration for an effect of 90% (IC90) under setting [2] was determined as 0.768 µM.

Regarding `N#CCn1cc(-c2cnc3c(Nc4ccc(C(=O)N5CCN(C(=O)N[C@H]6C[C@@H](N)C6)CC5)c(Cl)c4)nccn23)c(C(F)(F)F)n1` [Example 584, N-((1s,3s)-3-aminocyclobutyl)-4-(2-chloro-4-((3-(1-(cyanomethyl)-3-(trifluoromethyl)-1H-pyrazol-4-yl)imidazo[1,2-a]pyrazin-8-yl)amino)benzoyl) piperazine-1-carboxamide formate], the IC90 under setting [1] came out at 0.257 µM.

On to `N#CCn1cc(-c2cnc3c(Nc4ccc(C(=O)N5CCN(C(=O)N[C@H]6CCNC6)CC5)c(Cl)c4)nccn23)c(C(F)(F)F)n1` [Example 297, 4-[2-chloro-4-[[3-[1-(cyanomethyl)-3-(trifluoromethyl)pyrazol-4-yl]imidazo[1,2-a]pyrazin-8-yl]amino]benzoyl]-N-[(3S)-pyrrolidin-3-yl]piperazine-1-carboxamide formate], for which, under setting [2], the IC90 came to 0.31 µM.

Take `C[C@@H](NC(=O)c1ccc(Nc2nccn3c(-c4cn(CC#N)nc4C(F)(F)F)cnc23)cc1Cl)C(=O)N1CC[C@@H](N)C1` [Example 674, N-[(1R)-2-[(3R)-3-aminopyrrolidin-1-yl]-1-methyl-2-oxo-ethyl]-2-chloro-4-[[3-[1-(cyanomethyl)-3-(trifluoromethyl)pyrazol-4-yl]imidazo[1,2-a]pyrazin-8-yl]amino] benzamide formate]: under setting [1], the IC90 is 0.315 µM.

Regarding `CCc1cc(Nc2nccn3c(-c4cn(CC5CC(F)(F)C5)nc4C(F)(F)F)cnc23)ccc1C(=O)NCCOCCN` [Example 304, N-[2-(2-aminoethoxy)ethyl]-4-[[3-[1-[(3,3-difluorocyclobutyl)methyl]-3-(trifluoromethyl)pyrazol-4-yl]imidazo[1,2-a]pyrazin-8-yl]amino]-2-ethylbenzamide formate], the IC90 under setting [2] is 0.253 µM.

As to `CCc1cc(Nc2nccn3c(-c4cn(CC#N)nc4C(F)(F)F)cnc23)ccc1C(=O)NCC(=O)N1CCCC1CN` (stereo not drawn) [Example 510, N-[2-[2-(aminomethyl)pyrrolidin-1-yl]-2-oxo-ethyl]-4-[[3-[1-(cyanomethyl)-3-(trifluoromethyl)pyrazol-4-yl]imidazo[1,2-a]pyrazin-8-yl]amino]-2-ethyl-benzamide formate], under setting [2], the IC90 came out at 0.347 µM.

`NCCCC(=O)NCCCNC(=O)c1ccc(Nc2nccn3c(-c4c[nH]nc4C(F)(F)F)cnc23)cc1Cl` [Example 344, N-[3-(4-aminobutanoylamino)propyl]-2-chloro-4-[[3-[3-(trifluoromethyl)-1H-pyrazol-4-yl]imidazo[1,2-a]pyrazin-8-yl]amino]benzamide formate]: the IC90 under setting [1] amounted to 0.572 µM.

With `CCc1cc(Nc2nccn3c(-c4c[nH]nc4C(F)(F)F)cnc23)ccc1C(=O)NCCCNC(=O)[C@@H](C)NC(=O)C(F)(F)F` [Example 748, (R)-2-ethyl-N-(3-(2-(2,2,2-trifluoroacetamido)propanamido)propyl)-4-((3-(3-(trifluoromethyl)-1H-pyrazol-4-yl)imidazo[1,2-a]pyrazin-8-yl)amino) benzamide], the IC90 under setting [1] was found to be 0.608 µM.

As to `CCc1cc(Nc2nccn3c(-c4cn(C5CCC5)nc4C(F)(F)F)cnc23)ccc1C(=O)NCC1CC1N` (stereo not drawn) [Example 671, N-((2-aminocyclopropyl)methyl)-4-((3-(1-cyclobutyl-3-(trifluoromethyl)-1H-pyrazol-4-yl)imidazo[1,2-a]pyrazin-8-yl)amino)-2-ethylbenzamide formate], under setting [2], the IC90 turned out to be 0.309 µM.

Turning to `C=CCn1cc(-c2cnc3c(Nc4ccc(C(=O)NCCOC[C@@H](C)N)c(CC)c4)nccn23)c(C(F)(F)F)n1` [Example 148, N-[2-[(2R)-2-aminopropoxy]ethyl]-2-ethyl-4-[[3-[1-prop-2-enyl-3-(trifluoromethyl)pyrazol-4-yl]imidazo[1,2-a]pyrazin-8-yl]amino]benzamide], the IC90 under setting [3] is 0.084 µM.

Consider `Cc1cc(Nc2nccn3c(-c4c[nH]nc4C(F)(F)F)cnc23)ccc1C(=O)N1CCN(C(=O)NC2CNC2)CC1` [Example 408, N-(azetidin-3-yl)-4-[2-methyl-4-[[3-[3-(trifluoromethyl)-1H-pyrazol-4-yl]imidazo[1,2-a]pyrazin-8-yl]amino]benzoyl]piperazine-1-carboxamide formate], for which the IC90 under setting [2] amounted to 0.481 µM.

Regarding `CCCn1cc(-c2cnc3c(Nc4ccc(C(=O)NCCOCCN)c(CC)c4)nccn23)c(C(F)F)n1` [Example 346, N-[2-(2-aminoethoxy)ethyl]-4-[[3-[3-(difluoromethyl)-1-propylpyrazol-4-yl]imidazo[1,2-a]pyrazin-8-yl]amino]-2-ethylbenzamide], the IC90 under setting [1] stood at 0.164 µM.

Take `CCc1cc(Nc2nccn3c(-c4cn(CC(F)F)nc4C(F)(F)F)cnc23)ccc1C(=O)NCCNC(=O)[C@H]1C[C@H](N)C1` [Example 488, N-(2-((1r,3r)-3-aminocyclobutane-1-carboxamido)ethyl)-4-((3-(1-(2,2-difluoroethyl)-3-(trifluoromethyl)-1H-pyrazol-4-yl)imidazo[1,2-a]pyrazin-8-yl)amino)-2-ethylbenzamide formate]: the IC90 under setting [1] came to 0.147 µM.

In the case of `N=C(N)NC[C@H](N)C(=O)NCCCNC(=O)c1ccc(Nc2nccn3c(-c4c[nH]nc4C(F)(F)F)cnc23)cc1Cl` [Example 211, N-[3-[[(2S)-2-amino-3-carbamimidamidopropanoyl]amino]propyl]-2-chloro-4-[[3-[3-(trifluoromethyl)-1H-pyrazol-4-yl]imidazo[1,2-a]pyrazin-8-yl]amino]benzamide formate], the IC90 under setting [2] stood at 0.284 µM.

On to `CCc1cc(Nc2nccn3c(-c4cn(CC(F)F)nc4C(F)(F)F)cnc23)ccc1C(=O)NCCNC(=O)[C@@H](C)N` [Example 643, (R)-N-(2-(2-aminopropanamido)ethyl)-4-((3-(1-(2,2-difluoroethyl)-3-(trifluoromethyl)-1H-pyrazol-4-yl)imidazo[1,2-a]pyrazin-8-yl)amino)-2-ethylbenzamide formate], for which the IC90 under setting [2] turned out to be 0.232 µM.

For the compound `C=CCn1cc(-c2cnc3c(Nc4ccc(C(=O)NCCCN)c(CC)c4)nccn23)c(C(F)(F)F)n1` [Example 48, N-(3-aminopropyl)-2-ethyl-4-[[3-[1-prop-2-enyl-3-(trifluoromethyl)pyrazol-4-yl]imidazo[1,2-a]pyrazin-8-yl]amino] benzamide], under setting [3], the IC90 is 0.117 µM.

`CCc1cc(Nc2nccn3c(-c4cn(CC(F)F)nc4C(F)(F)F)cnc23)ccc1C(=O)NCCNC(=O)CCCN` [Example 537, N-(2-(4-aminobutanamido)ethyl)-4-((3-(1-(2,2-difluoroethyl)-3-(trifluoromethyl)-1H-pyrazol-4-yl)imidazo[1,2-a]pyrazin-8-yl)amino)-2-ethylbenzamide formate]: the IC90 under setting [2] came out at 0.163 µM.

The record behind these values is patent US20230203043A1, “NOVEL IMIDAZOPYRAZINE DERIVATIVES” (Hoffmann-La Roche Inc., priority 2020, published 2023).
